According to patent publication US10239871B2, “Compounds and methods for regulating integrins” (ADHAERE PHARMACEUTICALS, INC., priority 2012, dated 2019):
“Also recorded” adds a separate entry of the source.

How the values were obtained:
CD11b/CD18 [1] = target: T1, CD11b/CD18 (Homo sapiens, UniProt P11215); test: Flow cytometry with conformation reporter mAbs KIM127 and 24 on K562 WT cells; assay type: cell-based; parameters: K562 cells stably transfected with plasmid encoding wild-type integrin CD11b/CD18; expressed in transfected cells; conditions: LA1 15 uM, Mn2+ 1 mM; vs basal
Method: Flow cytometric analyses of K562 WT cells were performed according to published protocols. Briefly, cells were suspended in the assay buffer (Tris-buffered saline (TBS) containing 1 mM of ions Ca2+ and/or Mg2+ and 0.1% BSA). Cells ([…]) were incubated with primary mAb (1:100 dilution of IB4 ascites or the isotype controls, 1:50 […] and 24 and the relevant isotype controls, where incubations were performed at 37 °C) for 30 minutes. Subsequently, the cells were washed three times with the assay buffer and incubated with goat anti-mouse-APC (1 µg/ml, Invitrogen) for 20 minutes at 4° C. Cells were washed twice with the assay buffer and analyzed using FACSCaliber flow cytometer (BD Biosciences, CA), counting at least 10,000 events. Data was analyzed using the CellQuest software (BD Biosciences). Data shown is from one of at least three independent experiments.
Ligand binding induces extension of the integrin heterodimer and large, global conformational changes leading to outside-in signaling. Binding of activating antibodies also induces global conformational changes in the integrin heterodimer and such large conformational changes mimic those induced upon ligand binding. […] Thus, mAb KIM127 is often used as a reporter for the extended conformation of P2 integrins. […]

Syk = test: Western blot analysis of Syk phosphorylation in leukocytes; assay type: cell-based; conditions: leukocytes incubated 0-60 minutes
From the text: TLR4-mediated signaling requires participation of the adaptor protein MyD88 (43) and MyD88−/− mice are protected from kidney damage following IRI. TLR4 activation leads to the binding and stabilization of adaptor protein MyD88, which recruits downstream kinases to initiate Nf-kB-mediated pro-inflammatory signaling. Subsequently, TLR4 signaling induces a negative feedback loop by endogenous activation of CD11b/CD18, which activates Syk to phosphorylate MyD88, tagging it for ubiquitin-mediated destruction. […] A pilot experiment was carried out to validate this hypothesis by determining the levels of MyD88 in human monocytic THP-1 cells. […] This supports the statements that leukadherins mediated priming of integrins for activation negatively regulates intracellular signaling, including the inflammatory NF-kB signaling.

[2] = system: hematopoiesis and HSC compartment; test: Hematopoiesis and HSC compartment after 6 Gy total body irradiation; assay type: in vivo, mice; conditions: 1 mg/kg i.p. 7 days from 24 hours post 6 Gy TBI; 4 weeks post TBI
Method: FIGS. 26A-26C show the analysis of hematopoiesis and HSC compartment in LA1 (Red bars), Vehicle control (Blue bars) treated groups of mice at 4 weeks after 6 Gy of total body irradiation (TBI), showing that LA1 is highly radio-protective and a radio-mitigator. […] Mice were exposed to 6 Gy of TBI (at 0.5 Gy/min), and treated intraperitoneally (i.p.) with LA1 (1 mg/kg) or vehicle alone for 7 consecutive days starting at 24 hours post TBI.

CD11b/CD18 [3] = target: T1, CD11b/CD18; test: Cell adhesion assay, K562 WT cells on immobilized fibrinogen; assay type: cell-based; parameters: K562 cells stably transfected with plasmid encoding wild-type integrin CD11b/CD18; expressed in transfected cells; conditions: vs basal Ca2+ plus Mg2+ (1 mM each); leukadherins 15 μM, mAbs 20 μg/mL, Mn2+ 1 mM
Method: K562 cells stably transfected with plasmid encoding wild-type integrin CD11b/CD18 (K562 WT cells) have been described previously and were maintained in Iscove's Modified Dulbecco's Medium (IMDM) supplemented with 10% FBS and G418 (0.5 mg/ml). The murine macrophage cell line (RAW 264.7 cells) was obtained from ATCC and the cells were maintained in DMEM supplemented with 10% heat-inactivated FBS according to the manufacturer's instructions. The primary rat peritoneal macrophages were isolated from the wild type Fisher 344 rats that had been previously injected with 5 mL of Brewer's thioglycolate broth (Sigma-Aldrich). Macrophage purity was directly analyzed by single channel flow cytometry using rat macrophage specific monoclonal antibodies ED1 (AbD Serotec, Raleigh, N.C.), WT.5 (BD Biosciences) and His36 (BD Biosciences). Purity was typically >85%. Macrophages were used in assays immediately upon isolation.
Cell adhesion assays using K562 WT, murine RAW 264.7 cells and the primary rat macrophages were performed as previously described and used immobilized fibrinogen as the ligand of CD11b/CD18 [49]. […] The remaining adherent cells were fixed using 4% formaldehyde and quantified by imaging microscopy as previously described (22, 63). […]

O=C(O)c1ccc(-c2ccc(/C=C3\SC(=S)N(Cc4ccccc4)C3=O)o2)cc1 [LA1]
binding of conformation reporter KIM127 (CD11b/CD18 [1]): very small increase | binding of conformation reporter mAb 24 (CD11b/CD18 [1]): small increase | Syk phosphorylation (pSyk) (Syk): induction of Syk phosphorylation; also recorded: induces Syk phosphorylation | HSC analysis (BM cellularity, frequency of LKS+ BM cells and LKS+ CD150+ CD48− BM cells) [2]: significant improvement | adhesion of K562 WT cells to immobilized fibrinogen (CD11b/CD18 [3]): significantly increased
